Test results reported in article PMC4979471 (Cell Death Discovery, 2015).
Like-named read-outs stand apart in the source and are kept apart here.

Experiments:
Test in all cases: Kinase selectivity, P33-radiolabeled assay
Type in all cases: biochemical
Settings in all cases: 10 μM ATP
CK1d = molecular target: T1, CK1d (Homo sapiens, UniProt P48730)
T1 construct: purchased Reaction Biology Corp
Protocol: (§1) The compound was tested at a single dose in duplicate at 10 μM. Reactions were carried out at 10 μM ATP. Data are reported as % enzyme activity (relative to DMSO controls). The full data set is shown in the Supplementary Table I.

GRK3 = molecular target: T2, GRK3 (Homo sapiens, UniProt P35626)
T2 construct: purchased Reaction Biology Corp
T2 sequence (P35626 1-688): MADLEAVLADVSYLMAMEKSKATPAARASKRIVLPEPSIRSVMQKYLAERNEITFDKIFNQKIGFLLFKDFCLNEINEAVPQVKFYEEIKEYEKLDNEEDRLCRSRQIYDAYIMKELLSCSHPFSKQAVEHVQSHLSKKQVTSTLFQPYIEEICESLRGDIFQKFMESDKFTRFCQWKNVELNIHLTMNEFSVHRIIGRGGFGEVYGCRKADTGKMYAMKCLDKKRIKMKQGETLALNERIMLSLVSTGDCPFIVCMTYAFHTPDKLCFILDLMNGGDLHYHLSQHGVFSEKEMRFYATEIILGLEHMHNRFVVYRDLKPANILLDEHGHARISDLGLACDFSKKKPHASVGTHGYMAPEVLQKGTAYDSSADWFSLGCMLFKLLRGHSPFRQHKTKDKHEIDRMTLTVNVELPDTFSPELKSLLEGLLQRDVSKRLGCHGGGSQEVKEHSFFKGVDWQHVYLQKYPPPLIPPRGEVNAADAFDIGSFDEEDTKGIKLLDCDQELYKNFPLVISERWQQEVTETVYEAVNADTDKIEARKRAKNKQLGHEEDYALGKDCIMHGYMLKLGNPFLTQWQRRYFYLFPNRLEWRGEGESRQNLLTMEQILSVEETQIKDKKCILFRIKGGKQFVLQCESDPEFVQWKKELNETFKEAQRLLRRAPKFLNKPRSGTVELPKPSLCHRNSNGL
Protocol: as §1

KDR/VEGFR2 = molecular target: T3, KDR/VEGFR2 (Homo sapiens, UniProt P35968)
T3 construct: purchased Reaction Biology Corp
Protocol: as §1

LCK2/ICK = molecular target: T4, LCK2/ICK (Homo sapiens, UniProt Q9UPZ9)
T4 construct: purchased Reaction Biology Corp
T4 sequence (Q9UPZ9 1-632): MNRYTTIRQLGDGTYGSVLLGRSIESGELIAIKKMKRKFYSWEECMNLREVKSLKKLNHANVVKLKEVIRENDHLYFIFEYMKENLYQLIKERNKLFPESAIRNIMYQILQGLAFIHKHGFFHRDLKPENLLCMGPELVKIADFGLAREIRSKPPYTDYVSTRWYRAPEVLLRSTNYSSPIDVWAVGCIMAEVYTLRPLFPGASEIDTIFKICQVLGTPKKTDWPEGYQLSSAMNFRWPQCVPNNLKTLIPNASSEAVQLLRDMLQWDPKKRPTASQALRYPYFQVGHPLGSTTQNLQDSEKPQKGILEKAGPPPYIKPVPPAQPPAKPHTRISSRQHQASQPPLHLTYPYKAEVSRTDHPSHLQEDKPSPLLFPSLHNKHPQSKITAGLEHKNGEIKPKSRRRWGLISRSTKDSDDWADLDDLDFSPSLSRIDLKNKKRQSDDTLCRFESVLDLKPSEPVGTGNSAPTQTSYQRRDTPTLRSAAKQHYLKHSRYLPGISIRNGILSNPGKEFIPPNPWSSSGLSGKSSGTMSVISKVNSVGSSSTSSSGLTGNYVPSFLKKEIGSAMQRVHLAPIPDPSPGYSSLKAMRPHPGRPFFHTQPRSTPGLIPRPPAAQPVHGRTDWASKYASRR
Protocol: as §1

MUSK = molecular target: T5, MUSK (Homo sapiens, UniProt O15146)
T5 construct: purchased Reaction Biology Corp
T5 sequence (O15146 24-869): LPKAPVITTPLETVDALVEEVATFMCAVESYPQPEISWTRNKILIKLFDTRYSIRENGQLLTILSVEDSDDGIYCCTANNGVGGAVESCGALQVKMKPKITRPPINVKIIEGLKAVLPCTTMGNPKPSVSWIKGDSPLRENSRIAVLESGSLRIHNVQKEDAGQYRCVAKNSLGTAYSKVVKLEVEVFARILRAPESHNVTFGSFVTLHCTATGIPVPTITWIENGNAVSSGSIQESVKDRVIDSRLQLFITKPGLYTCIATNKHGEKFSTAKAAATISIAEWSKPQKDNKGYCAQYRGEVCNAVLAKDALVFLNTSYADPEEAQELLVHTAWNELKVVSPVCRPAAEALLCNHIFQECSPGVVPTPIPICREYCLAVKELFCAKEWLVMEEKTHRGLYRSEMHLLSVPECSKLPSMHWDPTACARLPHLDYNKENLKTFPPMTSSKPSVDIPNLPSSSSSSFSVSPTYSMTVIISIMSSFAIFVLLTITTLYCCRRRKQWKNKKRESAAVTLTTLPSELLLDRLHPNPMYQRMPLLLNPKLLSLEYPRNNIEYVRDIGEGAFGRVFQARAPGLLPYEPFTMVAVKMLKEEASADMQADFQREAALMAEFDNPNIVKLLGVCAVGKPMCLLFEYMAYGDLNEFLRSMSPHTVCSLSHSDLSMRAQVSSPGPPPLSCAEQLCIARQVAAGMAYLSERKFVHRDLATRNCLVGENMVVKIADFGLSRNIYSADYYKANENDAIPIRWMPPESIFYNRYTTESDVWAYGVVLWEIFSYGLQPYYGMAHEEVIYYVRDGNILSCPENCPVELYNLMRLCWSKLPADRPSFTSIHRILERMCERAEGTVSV
Protocol: as §1

TRKA = molecular target: T6, TRKA (Homo sapiens, UniProt P04629)
T6 construct: purchased Reaction Biology Corp
Protocol: as §1

TYK1/LTK = molecular target: T7, TYK1/LTK (Homo sapiens, UniProt P29376)
T7 construct: purchased Reaction Biology Corp
Protocol: as §1

WNK3 = molecular target: T8, WNK3 (Homo sapiens, UniProt Q9BYP7)
T8 construct: purchased Reaction Biology Corp
Protocol: as §1

ZIPK/DAPK3 = molecular target: T9, ZIPK/DAPK3 (Homo sapiens, UniProt O43293)
T9 construct: purchased Reaction Biology Corp
Protocol: as §1

[1] = read-out: % Enzyme Activity (relative to DMSO controls) AVG
[2] = read-out: % Enzyme Activity (relative to DMSO controls) Data 1
[3] = read-out: % Enzyme Activity (relative to DMSO controls) Data 2

T9 sequence (O43293 whole entry): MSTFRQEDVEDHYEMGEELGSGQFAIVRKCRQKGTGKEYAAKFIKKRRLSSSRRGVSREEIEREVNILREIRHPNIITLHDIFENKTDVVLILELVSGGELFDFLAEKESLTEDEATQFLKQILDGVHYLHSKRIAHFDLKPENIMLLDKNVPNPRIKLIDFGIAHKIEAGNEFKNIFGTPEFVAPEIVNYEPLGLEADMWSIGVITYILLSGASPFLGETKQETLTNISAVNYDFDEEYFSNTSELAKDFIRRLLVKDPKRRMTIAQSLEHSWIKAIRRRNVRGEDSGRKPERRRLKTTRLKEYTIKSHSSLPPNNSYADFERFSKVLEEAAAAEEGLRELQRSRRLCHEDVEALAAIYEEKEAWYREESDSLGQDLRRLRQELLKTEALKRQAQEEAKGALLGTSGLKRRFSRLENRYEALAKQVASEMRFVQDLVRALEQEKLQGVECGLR
T3 sequence (P35968 20-1356): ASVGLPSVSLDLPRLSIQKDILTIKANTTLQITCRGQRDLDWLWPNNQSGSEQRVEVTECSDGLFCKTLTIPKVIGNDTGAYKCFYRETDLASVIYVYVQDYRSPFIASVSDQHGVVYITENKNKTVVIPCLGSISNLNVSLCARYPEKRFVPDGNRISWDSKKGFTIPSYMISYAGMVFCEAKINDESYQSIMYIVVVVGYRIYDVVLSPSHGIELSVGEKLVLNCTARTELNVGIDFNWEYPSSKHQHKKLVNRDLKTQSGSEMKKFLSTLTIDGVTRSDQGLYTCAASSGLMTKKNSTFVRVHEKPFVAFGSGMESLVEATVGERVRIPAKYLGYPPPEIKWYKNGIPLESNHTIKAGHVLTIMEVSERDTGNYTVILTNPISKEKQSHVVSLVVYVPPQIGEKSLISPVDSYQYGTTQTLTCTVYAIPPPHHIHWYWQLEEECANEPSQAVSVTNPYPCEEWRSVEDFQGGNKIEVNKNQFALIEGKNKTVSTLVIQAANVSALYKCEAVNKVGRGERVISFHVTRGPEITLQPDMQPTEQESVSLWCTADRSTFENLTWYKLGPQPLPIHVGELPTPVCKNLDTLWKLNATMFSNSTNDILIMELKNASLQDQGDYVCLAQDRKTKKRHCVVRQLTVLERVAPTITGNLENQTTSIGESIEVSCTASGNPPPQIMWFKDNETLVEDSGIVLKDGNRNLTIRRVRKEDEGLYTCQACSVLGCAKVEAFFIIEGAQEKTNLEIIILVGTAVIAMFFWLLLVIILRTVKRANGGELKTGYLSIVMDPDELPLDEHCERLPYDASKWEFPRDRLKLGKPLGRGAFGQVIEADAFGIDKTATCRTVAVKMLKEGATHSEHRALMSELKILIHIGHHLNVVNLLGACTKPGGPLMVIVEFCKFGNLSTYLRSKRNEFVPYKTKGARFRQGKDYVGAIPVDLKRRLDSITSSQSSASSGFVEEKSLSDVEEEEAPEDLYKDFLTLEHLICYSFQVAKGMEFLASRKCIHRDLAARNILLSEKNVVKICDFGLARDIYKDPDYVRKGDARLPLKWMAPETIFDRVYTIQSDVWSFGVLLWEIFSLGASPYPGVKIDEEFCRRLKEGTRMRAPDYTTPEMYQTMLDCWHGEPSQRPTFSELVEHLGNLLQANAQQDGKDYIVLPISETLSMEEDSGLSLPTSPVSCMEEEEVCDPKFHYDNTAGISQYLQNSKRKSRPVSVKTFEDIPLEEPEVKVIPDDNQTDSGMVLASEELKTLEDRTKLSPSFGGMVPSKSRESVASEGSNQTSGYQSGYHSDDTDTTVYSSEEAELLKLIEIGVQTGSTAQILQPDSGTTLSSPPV
T8 sequence (Q9BYP7 whole entry): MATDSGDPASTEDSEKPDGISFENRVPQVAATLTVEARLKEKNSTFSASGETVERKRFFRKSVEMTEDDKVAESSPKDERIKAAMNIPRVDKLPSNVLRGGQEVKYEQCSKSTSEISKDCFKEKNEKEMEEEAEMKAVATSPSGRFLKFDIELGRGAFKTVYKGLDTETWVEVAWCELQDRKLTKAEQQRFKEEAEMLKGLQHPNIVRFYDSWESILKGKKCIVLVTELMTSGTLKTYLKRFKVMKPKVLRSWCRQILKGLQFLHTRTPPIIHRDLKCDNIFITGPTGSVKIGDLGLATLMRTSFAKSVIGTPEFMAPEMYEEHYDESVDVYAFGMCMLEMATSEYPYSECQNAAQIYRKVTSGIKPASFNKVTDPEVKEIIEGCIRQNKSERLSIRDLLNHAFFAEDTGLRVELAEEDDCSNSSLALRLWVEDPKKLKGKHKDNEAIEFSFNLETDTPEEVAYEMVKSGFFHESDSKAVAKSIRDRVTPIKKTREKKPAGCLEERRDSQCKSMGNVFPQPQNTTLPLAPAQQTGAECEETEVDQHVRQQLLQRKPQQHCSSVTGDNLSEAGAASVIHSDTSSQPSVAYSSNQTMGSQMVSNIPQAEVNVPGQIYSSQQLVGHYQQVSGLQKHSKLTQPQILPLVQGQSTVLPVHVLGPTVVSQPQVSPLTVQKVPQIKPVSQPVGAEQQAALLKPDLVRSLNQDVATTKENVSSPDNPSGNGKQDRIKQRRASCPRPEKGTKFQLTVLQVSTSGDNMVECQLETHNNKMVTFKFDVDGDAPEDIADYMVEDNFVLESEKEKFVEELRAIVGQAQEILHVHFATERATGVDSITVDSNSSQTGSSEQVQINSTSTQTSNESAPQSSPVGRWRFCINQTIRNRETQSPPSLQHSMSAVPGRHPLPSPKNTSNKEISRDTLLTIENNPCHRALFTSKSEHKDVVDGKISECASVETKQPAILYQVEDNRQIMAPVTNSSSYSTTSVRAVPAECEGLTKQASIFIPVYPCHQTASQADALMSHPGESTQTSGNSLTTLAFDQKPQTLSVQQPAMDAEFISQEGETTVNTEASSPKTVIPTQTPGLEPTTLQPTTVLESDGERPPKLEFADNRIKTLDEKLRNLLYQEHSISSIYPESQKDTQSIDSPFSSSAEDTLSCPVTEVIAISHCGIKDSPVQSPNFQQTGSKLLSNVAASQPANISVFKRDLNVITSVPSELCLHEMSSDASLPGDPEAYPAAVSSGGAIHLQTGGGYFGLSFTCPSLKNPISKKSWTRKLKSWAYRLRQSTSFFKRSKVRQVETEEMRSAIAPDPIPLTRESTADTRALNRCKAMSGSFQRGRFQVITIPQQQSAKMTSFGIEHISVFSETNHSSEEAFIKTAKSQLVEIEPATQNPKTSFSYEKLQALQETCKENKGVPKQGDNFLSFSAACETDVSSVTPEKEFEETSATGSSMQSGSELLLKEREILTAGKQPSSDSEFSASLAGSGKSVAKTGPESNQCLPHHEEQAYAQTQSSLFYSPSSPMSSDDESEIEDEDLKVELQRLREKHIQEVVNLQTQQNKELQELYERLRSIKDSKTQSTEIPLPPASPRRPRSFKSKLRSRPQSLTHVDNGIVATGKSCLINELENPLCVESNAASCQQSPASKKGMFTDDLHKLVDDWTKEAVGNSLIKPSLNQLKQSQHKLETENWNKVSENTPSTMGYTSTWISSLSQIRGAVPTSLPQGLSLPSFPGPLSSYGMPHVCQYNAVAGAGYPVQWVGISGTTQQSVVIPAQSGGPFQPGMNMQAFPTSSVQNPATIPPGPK
T1 sequence (P48730 whole entry): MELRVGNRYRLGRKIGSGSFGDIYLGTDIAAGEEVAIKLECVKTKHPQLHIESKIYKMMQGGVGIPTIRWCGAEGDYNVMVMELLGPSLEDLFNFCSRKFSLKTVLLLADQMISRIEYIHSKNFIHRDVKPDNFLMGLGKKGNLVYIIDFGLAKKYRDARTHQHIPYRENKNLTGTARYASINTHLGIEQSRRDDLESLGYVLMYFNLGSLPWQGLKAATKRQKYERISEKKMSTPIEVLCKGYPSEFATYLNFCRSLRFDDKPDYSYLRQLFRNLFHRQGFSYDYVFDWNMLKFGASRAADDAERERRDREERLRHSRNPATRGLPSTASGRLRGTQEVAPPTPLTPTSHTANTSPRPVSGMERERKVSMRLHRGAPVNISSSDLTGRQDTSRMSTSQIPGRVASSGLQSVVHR
T7 sequence (P29376 17-864): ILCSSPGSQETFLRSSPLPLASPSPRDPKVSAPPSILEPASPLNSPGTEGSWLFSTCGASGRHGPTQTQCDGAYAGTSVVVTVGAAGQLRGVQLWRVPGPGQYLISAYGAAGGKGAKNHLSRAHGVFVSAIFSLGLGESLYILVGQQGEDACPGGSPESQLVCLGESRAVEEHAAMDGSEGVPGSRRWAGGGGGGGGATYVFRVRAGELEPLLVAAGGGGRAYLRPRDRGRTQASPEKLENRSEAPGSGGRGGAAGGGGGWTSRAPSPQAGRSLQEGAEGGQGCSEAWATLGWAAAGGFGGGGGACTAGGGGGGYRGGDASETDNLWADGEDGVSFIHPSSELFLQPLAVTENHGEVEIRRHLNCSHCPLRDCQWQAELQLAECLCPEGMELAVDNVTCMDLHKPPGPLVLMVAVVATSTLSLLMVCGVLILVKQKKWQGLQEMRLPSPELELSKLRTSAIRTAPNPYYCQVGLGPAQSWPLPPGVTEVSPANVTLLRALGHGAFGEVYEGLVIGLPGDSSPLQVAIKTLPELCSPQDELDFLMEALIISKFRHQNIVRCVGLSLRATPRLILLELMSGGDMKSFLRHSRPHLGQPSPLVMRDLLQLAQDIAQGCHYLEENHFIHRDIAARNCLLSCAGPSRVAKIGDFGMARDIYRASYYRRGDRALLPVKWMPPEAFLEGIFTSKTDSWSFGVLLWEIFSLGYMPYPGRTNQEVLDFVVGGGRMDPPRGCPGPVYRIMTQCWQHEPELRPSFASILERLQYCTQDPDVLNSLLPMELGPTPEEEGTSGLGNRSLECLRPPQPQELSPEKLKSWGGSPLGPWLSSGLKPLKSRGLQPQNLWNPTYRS

SMILES: CC(C)(C)C(=O)N1N=CC[C@H]1c1ccccc1 [GSK′963]
- remaining activity at 10 µM (CK1d; [1]): 96.7%
- remaining activity at 10 µM (CK1d; [2]): 94.1%
- remaining activity at 10 µM (CK1d; [3]): 99.2%
- remaining activity at 10 µM (GRK3; [1]): 97.9%
- remaining activity at 10 µM (GRK3; [2]): 98.1%
- remaining activity at 10 µM (GRK3; [3]): 97.6%
- remaining activity at 10 µM (KDR/VEGFR2; [1]): 97.1%
- remaining activity at 10 µM (KDR/VEGFR2; [2]): 96.8%
- remaining activity at 10 µM (KDR/VEGFR2; [3]): 97.5%
- remaining activity at 10 µM (LCK2/ICK; [1]): 101%
- remaining activity at 10 µM (LCK2/ICK; [2]): 100%
- remaining activity at 10 µM (LCK2/ICK; [3]): 101%
- remaining activity at 10 µM (MUSK; [1]): 99.9%
- remaining activity at 10 µM (MUSK; [2]): 99.2%
- remaining activity at 10 µM (MUSK; [3]): 100%
- remaining activity at 10 µM (TRKA; [1]): 99.8%
- remaining activity at 10 µM (TRKA; [2]): 98.2%
- remaining activity at 10 µM (TRKA; [3]): 101%
- remaining activity at 10 µM (TYK1/LTK; [1]): 104%
- remaining activity at 10 µM (TYK1/LTK; [2]): 104%
- remaining activity at 10 µM (TYK1/LTK; [3]): 105%
- remaining activity at 10 µM (WNK3; [1]): 100%
- remaining activity at 10 µM (WNK3; [2]): 97.5%
- remaining activity at 10 µM (WNK3; [3]): 103%
- remaining activity at 10 µM (ZIPK/DAPK3; [1]): 111%
- remaining activity at 10 µM (ZIPK/DAPK3; [2]): 118%
- remaining activity at 10 µM (ZIPK/DAPK3; [3]): 104%
